Results from US20080300299A1, “Application of Eriocalyxin B in the Manufacture of Medicaments For Treating Leukemia” (Rui Jin Hospital Affiliated to Shanghai Second Medical …, priority 2005, published 2008).
Several values for one entry are separate records, joined by “and”; a condition that tells them apart may be missing. Equal entries are not always repeated.

How the values were obtained:
Kasumi-1 cells [1] = assay: Mitochondrial transmembrane potential (Rh123 flow cytometry); assay type: cell-based, human
Protocol: (§1) (IV) Flow cytometric for annexin-V, cell cycle, mitochondrial transmembrane potential and reactive oxygen species (ROS) generation: Cell apoptosis was analyzed using an ApoAlert Annexin V-FITC Apoptosis kit (BD). In the process of analyzing the cell cycle, the cells were fixed overnight in methanol at −20° C., followed by treatment of Tris-HCl buffer (pH 7.4) comprising 1% RNase, 50 μg/ml PI staining. In the detection of mitochondrial transmembrane potential, the cells were washed with PBS, incubated at 37° C. and with […] Rh123 for 30 minutes, and then staining with 50 μg/ml PI. DCFH-DA was used to detect ROS levels, thus the cells were washed with PBS, and incubated at 37° C. and with […] DCFH-DA for 30 minutes. Fluorescence intensity was measured by flow cytometry.

Kasumi-1 cells [2] = assay: ROS level flow cytometry; assay type: cell-based, human
Protocol: as §1

Kasumi-1 cells [3] = assay: Annexin V-FITC/PI apoptosis flow cytometry; assay type: cell-based, human; conditions: 0.5 μM EriB
Protocol: as §1

Daudi cells = assay: MTT cell growth inhibition; assay type: cell-based, human; conditions: 72 hours
Excerpt: (§2) (II) Cell culture, cell survival and cell morphology: the present invention utilized the following human cell lines: AML leukemia with t(8;21) chromosomal translocation Kasumi-1 cell lines, which is also known as acute myeloid leukemia comprising AML1-ETO fusion gene; acute promyelocytic leukemia NB4, NB4/R1 and NB4/R2 cell lines, and acute myeloid leukemia U937 cell lines; Burkitt's lymphoma (Raji and Daudi) cell lines; T-cell acute lymphoblastic leukemia (Jurkat) cell lines. The present invention studied by collecting primary leukemia cells from five AML patients with t(8;21). The diagnoses of patients were established on the bases of morphological examination, cytogenetics study detection of t(8;21) chromosomal translocation, and RT-PCR detection of AML1-ETO fusion protein. Leukemia cells were prepared in the following conditions: separated with Lymphocyte Separation Medium, further isolated and cultured in RPMI-1640 medium (Gibco/BRL), in addition, added 10% FBS (PAA) in 5% CO2-95% air and saturated humidity, and at 37° C. In each experiment, cell inoculation density is 2×10^5/ml. The survival rate of cells was accessed using trypan blue dye-exclusion experiments. Cell observations were done by using the Wright's staining method.
(§3) (III) MTT experiment: cells were treated with EriB at concentrations of 0.1, 0.25, 0.5, 1, 2, 4, 6, 8 and 10 μM in a 96-hole plate. After 72 hours, 0.1 mg MTT was added to each hole, incubated at 37° C. for four hours later, absorbance values were measured at 570 nm by spectrophotometer.

Jurkat cells = assay: MTT cell growth inhibition; assay type: cell-based, human; conditions: 72 hours
Excerpt: as §2, §3

NB4 cells = assay: MTT cell growth inhibition; assay type: cell-based, human; conditions: 72 hours
Excerpt: as §2, §3

NB4/R1 cells = assay: MTT cell growth inhibition; assay type: cell-based, human; conditions: 72 hours
Excerpt: as §2, §3

NB4/R2 cells = assay: MTT cell growth inhibition; assay type: cell-based, human; conditions: 72 hours
Excerpt: as §2, §3

Raji cells = assay: MTT cell growth inhibition; assay type: cell-based, human; conditions: 72 hours
Excerpt: as §2, §3

U937 cells = assay: MTT cell growth inhibition; assay type: cell-based, human; conditions: 72 hours
Excerpt: as §2, §3

HL60 cells = assay: MTT cell growth inhibition; assay type: cell-based, human; conditions: 72 hours
Protocol: as §3

[4] = system: human malignant hematopoietic cell; assay: MTT cell growth inhibition, whole panel; assay type: cell-based; conditions: all cell lines tested
Excerpt: as §2, with “The survival rate of cells was accessed using trypan blue dye-exclusion experiments. Cell observations were done by using the Wright's staining method.” left out
as §3

Kasumi-1 cells [5] = assay: Cell survival (trypan blue dye-exclusion); assay type: cell-based, human; conditions: 48 hours
Excerpt: as §2

Kasumi-1 cells [6] = assay: Cell cycle analysis (nuclear DNA content, PI); assay type: cell-based, human; conditions: 0.25 μM EriB for 6, 12, 24 and 48 hours
Protocol: as §1

Kasumi-1 cells [7] = assay: Differentiation associated antigen expression; assay type: cell-based, human; conditions: 0.1 and 0.25 μM EriB for seven days
Bcl-2 = assay: Western blot and RT-PCR of Bcl-2 in Kasumi-1 cells; assay type: cell-based, human; conditions: EriB 24 and 48 hours
Protocol: (§4) (VII) Western Blot analysis: lysing 5×10^6 cells with 200 μl Laemmli lysis buffer (0.5M Tris-HCl, pH 6.8, 2 mM EDTA, 10% glycerol, 2% SDS and 5% β-mercaptoethanol). Protein lysate (20 μg) was used on 10% polyacrylamide gel electrophoresis, and then transferred to nitrocellulose membranes. Nitrocellulose membranes were blocked with TBS/0.05% Tween 20 5% skim (nonfat) milk, and afterwards, incubated with primary antibody for two hours at room temperature, and incubated with horseradish peroxidase labeled IgG for one hour. The Immunocomplexes were detected with chemiluminescence horseradish peroxidase detection kit. The signal intensities of the respective bands were analyzed with Quantity One version 4.1.1 software.
(§5) (IX) Semi-quantitative reverse transcription-PCR (RT-PCR): the total RNA was extracted using Trizol (Invitrogen). Random hexamers and Superscript II (Invitrogen) ART were used for reverse transcribed into cDNA. The present invention utilized the following primers: […]

Bcl-XL = assay: Western blot and RT-PCR of Bcl-XL in Kasumi-1 cells; assay type: cell-based, human; conditions: EriB 24 and 48 hours
Protocol: as §4, §5

Bax = assay: Western blot and RT-PCR of Bax in Kasumi-1 cells; assay type: cell-based, human; conditions: EriB 24 and 48 hours
Protocol: as §4, §5

NF-κB [8] = assay: NF-κB luciferase report assay in Kasumi-1 cells; assay type: cell-based, human; conditions: pre-treatment with EriB for one hour, then TNF-α four hours
Protocol: (§6) (X) Luciferase report assay: Kasumi-1 cells were resuspended in cultured medium, added the gene vector [10 μg, NF-κB-mediated luciferase reporter plasmid or pAP1-luc (Clontech), and 2 μg of β-galactosidase enzyme expression plasmid for correcting cell transfection efficiency of the CMV-mediated. Cell transfection conditions were: 1000V, 25 μF, and the instrument came from the Bio-Rad Laboratories, Inc. Transfections after 36 hours, the cells were treated with EriB and/or TNFα, and then the cells were lysed. Luciferase activity was measured by lumat LB 9507 tube luminometer (EG&G Berthold). Cell lysates were mixed with 2×β-half-galactosidase reaction reagents, after incubated for one hour at 37° C., the termination of reaction by adding 1 M Na2CO3. The β-galactosidase enzyme absorbance values were measured at 420 nm by spectrophotometer.

NF-κB [9] = assay: Gel electrophoresis shift assay (EMSA) of NF-κB DNA binding; assay type: cell-based, human; conditions: EriB added one hour before TNF-α
Protocol: (XI) Gel electrophoresis shift assay: nucleoprotein extracts of Kasumi-1 cells were quantitatively determined by using Coomassie plus reagent (Pierce). Nucleoprotein (10 μg) and ^32P marked double-stranded NF-κB (5′-[…]-3′) were sequentially incubated, and then […] using 4% of non-denaturing PAGE gel; the marked bands were detected by using autoradiography.

NF-κB (P65) = assay: Immunofluorescence of P65 nuclear translocation in Kasumi-1 cells; assay type: cell-based, human; conditions: pretreatment with EriB for one hour, 100 ng/ml TNF-α four hours
Protocol: (VI) Immunofluorescence: the cells were fixed in methanol for five minutes at −20° C., after being washed with PBS, treated by 0.5% Triton-X-permeability, blocked with 1% BSA, and incubated with anti-P65 antibody at room temperature for one hour; after being washed again with PBS and incubated with the fluorescent-label IgG at room temperature for 30 minutes. The cells were incubated with Hochest 33258 for five minutes later, and observations were proceeded under the fluorescent microscope.

AML1-ETO fusion protein = assay: Western blot of AML1-ETO (anti-ETO antibody) in Kasumi-1 cells; assay type: cell-based, human; conditions: EriB 24 and 48 hours
Protocol: as §4

caspase-3 = assay: Western blot of caspase-3 activation and PARP; assay type: cell-based, human; conditions: EriB; Kasumi-1, NB4 and NB4/R2 cells
ERK1/2 = assay: Western blot of phosphorylated ERK1/2 in Kasumi-1 cells; assay type: cell-based, human; conditions: EriB 12 and 24 hours
Protocol: as §4

AP-1 = AP-1 luciferase report assay in Kasumi-1 cells; assay type: cell-based, human; conditions: 0.5 μM EriB for 4 hours
Protocol: as §6

[10] = system: primary leukemia cells from patients with t(8;21); assay: Growth inhibition of primary leukemia cells (trypan blue exclusion); assay type: cell-based, human; conditions: 0.1 and 0.25 μM EriB, all five patients
Excerpt: as §2

[11] = system: MigA/Etr cells expressing C-terminal truncated AML1-ETO; assay: C57 murine model of t(8;21) leukemia; assay type: in vivo, mice; conditions: for median survival time: control 25 days, P<0.001
Protocol: (XII) Leukemia murine model: female C57 mice and nude mice (5-6 weeks) were bred in special pathogen-free environment. C57 mice received 400 cGy from a high-energy linear accelerator at the dose rate of 100 cGy per minute. After 24 hours, the C57 mice were injected with 3×10^6 Mig/Etr cells expressing carbon-terminal truncated AML1-ETO of 0.2 ml PBS via tail vein intravenous injection. Treatments (12 mice in each group) were started five days after injection of leukemia cells. The control group and the EriB treated group, all respectively receive EriB (1.25, or 2.5 mg/kg, intraperitoneal injection for two weeks) and diluents (1% Pluronic F68).
EriB efficacy in the treatment of murine models. C57 mice were irradiated by lethal dose (LD)50 and injected via tail vein intravenously with 3×10^6 MigA/Etr cells expressing of C-terminal truncated AML1-ETO (day 0). Beginning on day 5, intraperitoneal injection of EriB ([…]) for two weeks. The overall survival rate was measured and calculated started from day 0 to the date of death. All the mice eventually develop symptoms of anemia and difficulty breathing, and also the occurrence of a large number of primitive blood cells in the peripheral blood.

Kasumi-1 cells [12] = assay: Kasumi-1 xenograft tumor model in nude mice; assay type: in vivo; conditions: EriB 2.5 mg/kg intraperitoneal, day 10 to day 19; P<0.05
Protocol: Another xenograft tumor model was established through subcutaneous injection in nude mice of 3×10^7 Kasumi-1 cells (day 0). The incubation period of tumor formation at the site of injection was about 8-12 days. Beginning from day 10, the mice were treated with EriB (2.5 mg/kg) by intraperitoneal injection only until day 19.

Structure (SMILES): O[C@H](CS)[C@H](O)CS (racemic) [DTT, dithiothreitol, reference compound]
- effect on EriB-induced apoptosis (Rh123) (Kasumi-1 cells [1]; 0.2 mM DTT with 0.5 μM EriB): completely inhibit
- ROS level (Kasumi-1 cells [2]; 0.2 mM DTT and EriB jointly incubated): has not changed

Structure (SMILES): COC(=O)CC[C@H](NC(=O)[C@H](CC(=O)OC)NC(=O)OCc1ccccc1)C(=O)N[C@H](C(=O)N[C@@H](CC(=O)OC)C(=O)CF)C(C)C [Z-DEVD-fmk, reference compound]
- effect on rate of EriB-induced apoptosis (annexin V positive cell proportion) (Kasumi-1 cells [3]; 40 μM Z-DEVD-fmk pre-treatment one hour): only partially reduced

Structure (SMILES): C=C1C(=O)[C@]23C[C@H]1CC[C@H]2[C@@]12CO[C@]3(O)[C@@H](O)[C@@H]1C(C)(C)C=CC2=O [EriB, Eriocalyxin B]
- IC50 (Daudi cells): > 1500 nM
- IC50 (Jurkat cells): > 1500 nM
- IC50 (NB4 cells): < 1000 nM and 500 nM
- IC50 (NB4/R1 cells): < 1000 nM and 1000 nM
- IC50 (NB4/R2 cells): < 1000 nM and 500 nM
- IC50 (Raji cells): > 1500 nM
- IC50 (U937 cells): 1000 nM
- IC50 (HL60 cells): 1000 nM
- concentration that inhibits the growth of the cells [4]: 0.2 to 2 µM
- cell death (Kasumi-1 cells [5]; 0.25 μM EriB): 42.7±6.5%
- cell death (Kasumi-1 cells [5]; 0.75 μM EriB): 90.5±4.3%
- annexin V-positive cells proportion (Kasumi-1 cells [3]; 48 hours): 88.6%
- proportion of sub-G1 cells (Kasumi-1 cells [6]): higher proportion of sub-G1
- induction of differentiation (CD11b, CD13, CD14, CD33, CD34, CD64) (Kasumi-1 cells [7]): did not induce differentiation
- mitochondrial transmembrane potential (Kasumi-1 cells [1]; EriB 24 and 48 hours, time and dose dependent): decreased significantly
- Bcl-2 protein and mRNA levels (Bcl-2): have decreased
- Bcl-XL protein and mRNA levels (Bcl-XL): have decreased
- Bax expression (Bax): have not changed significantly
- base luciferase activity and TNF-α-induced NF-κB activity (NF-κB [8]): have been blocked
- NF-κB activation (DNA binding, EMSA) (NF-κB [9]): can block NF-κB activation
- TNF-α-induced P65 translocation into nucleus (NF-κB (P65)): significantly prevent
- cell level of ROS compared with untreated cells (Kasumi-1 cells [2]; 0.5 μM EriB alone for 2 hours): about two
- AML1-ETO fusion protein level (AML1-ETO fusion protein): AML1-ETO degradation
- caspase-3 activation (caspase-3): activated
- ERK1/2 phosphorylation level (ERK1/2): rapidly decreased
- AP-1 luciferase activity increase (AP-1): about three
- cell inhibition [10]: more than 60%
- median survival time ([11]; EriB 1.25 mg/kg intraperitoneal for two weeks): 28 days
- median survival time ([11]; EriB 2.5 mg/kg intraperitoneal for two weeks): 32 days
- spleen size versus untreated mice ([11]; EriB intraperitoneal, 20 days): obviously smaller
- tumor size versus control group (Kasumi-1 cells [12]): significantly reduce tumor size
